Results as given in patent publication US9333214B2 (priority 2007, dated 2016).

Legend:
P. aeruginosa = experiment: Amikacin susceptibility testing (MIC) of P. aeruginosa sputum isolates; format: cell-based; conditions: for MIC: Pseudomonas aeruginosa
Method: Quantitative culture of sputum samples and subsequent amikacin susceptibility testing of each morphologically distinct P. aeruginosa were performed. The MIC of amikacin for the isolates with the highest MIC cultured from each subject at screening and Day 14 was documented. The density (CFU per gram of sputum) of P. aeruginosa in sputum was calculated as the log10 value for the sum of all morphotypes.

[1] = rat, in vivo
[2] = system: P. aeruginosa strain (mucoid strain 3064); experiment: Rat model of chronic pulmonary infection with Pseudomonas (agar beads); format: in vivo, rats
[3] = Preclinical pharmacokinetics after inhalation in rats; conditions: equal dose by inhalation

| MIC (P. aeruginosa; 0 h, Study 1, baseline (Day 0)) [µg/mL] | MIC (P. aeruginosa; 336 h, Study 1, Day 14) [µg/mL] | MIC (P. aeruginosa; Study 2, baseline) [µg/mL] | mean MIC of amikacin for P. aeruginosa isolates (P. aeruginosa; Study 1, baseline (Day 0)) [µg/mL] | SMILES | time to undetectable lung levels after cessation of administration [1] [h] | bacteria in lungs ([2]; 60 mg/kg (given twice per day) daily for 28 days) | bacterial density (log10CFU/lung) vs saline control ([2]; BID for 14 days, 30 mg/kg per dose) | AUC of drug in the kidneys vs Liposomal Amikacin aerosol [3] |
| --- | --- | --- | --- | --- | --- | --- | --- | --- |
| 8 | 30.8 | 41 | 8.04 | NCC[C@H](O)C(=O)N[C@@H]1C[C@H](N)[C@@H](O[C@H]2O[C@H](CN)[C@@H](O)[C@H](O)[C@H]2O)[C@H](O)[C@H]1O[C@H]1O[C@H](CO)[C@@H](O)[C@H](N)[C@H]1O [amikacin] |  |  |  |  |
|  |  |  |  | NC[C@H]1O[C@H](O[C@H]2[C@H](O)[C@@H](O[C@H]3O[C@H](CO)[C@@H](O)[C@H](N)[C@H]3O)[C@H](N)C[C@@H]2N)[C@H](N)C[C@@H]1O [tobramycin] | ≤ 6 | below the limit of detection | significant reduction | significantly higher |
